Laboratory results taken from patent US20090298843A1, “TREATMENT OF HEMATOLOGICAL MALIGNANCIES WITH FTS AND A BCR-ABL TYROSINE KINASE INHIBITOR” (RAMOT AT TEL AVIV UNIVERSITY LTD., priority 2006, published 2009).

Experiments:
[1] = Phase-I open-label study of FTS in human patients with advanced hematologic malignancies; type: in vivo; details: for ANC, baseline level / HGB, baseline level / PLT, baseline level: before treatment
Experimental: One human patient with advanced myelodysplastic syndrome (MDS) refractory to chemotherapy was treated with FTS, at a dose of 200 b.i.d. (400 mg daily), administered on days 1 to 21 of a 28 day cycle. […] The results are graphically depicted in FIG. 7 and in Table 3 (below). Five human patients with advanced myelodysplastic syndrome (MDS), acute myelogenous leukemia (AML), or chronic myelogenous leukemia (CML) refractory to chemotherapy were treated with FTS at doses of 200 to 600 mg b.i.d. (400 to 1200 mg daily) administered on days 1 to 21 of a 28 day cycle. […]

HL-60 cells (AML) = experiment: Cell growth inhibition assay, FTS alone (direct cell count); type: cell-based, Human; details: for cell number in FTS-treated cells as a percentage of controls (avg): counted 48 h after addition
Description: (§1) The following cell lines were examined, representing Acute Myeloid Leukemia (AML), Acute Lymphoblastic Leukemia (ALL), and Chronic Myeloid Leukemia (CML): 1. CEM (Human T-cell leukemia, ALL) 2. HSB-2 (Human T-cell leukemia, ALL) carrying the t(1; 7) (p34; q34) involving the lck and tcrb genes and a submicroscopic del(1)(p32) leading to the Sil-Scl fusion gene 3. 697 (Human T-cell leukemia, ALL) 4. Raji (Human Burkitt's lymphoma) with overexpression and mutation in the c-Myc gene 5. U-937 (Human histiocytic lymphoma, AML) 6. HL-60 (AML) 7. K562 (Himan, CML) with a b3-a2 fusion gene to create the Bcr-Abl chimeric oncoprotein.
(§2) Cells were grown at 37° C. in RPMI containing 5% FCS, 100 μg/mL streptomycin, and 100 units/mL penicillin and maintained in a humidified atmosphere of 95% air/5% CO2. […] Each experiment tin quadruplicate) was performed at least two times.

[2] = test system: Raji cells (Human Burkitt's lymphoma); experiment: as above; type: cell-based; details: for cell number in FTS-treated cells as a percentage of controls (avg): counted 48 h after addition
Description: as §1, §2

[3] = test system: HSB-2 cells (Human T-cell leukemia, ALL); experiment: as above; type: cell-based; details: for cell number in FTS-treated cells as a percentage of controls (avg): HSB, counted 48 h after addition
Description: as §1, §2

[4] = test system: CEM cells (Human T-cell leukemia, ALL); experiment: as above; type: cell-based; details: for cell number in FTS-treated cells as a percentage of controls (avg): CEM, counted 48 h after addition
Description: as §1, §2

K562 cells (Human, CML) [5] = experiment: as above; type: cell-based; details: for cell number in FTS-treated cells as a percentage of controls (avg): counted 48 h after addition
Description: as §1, §2

[6] = test system: 697 cells (Human T-cell leukemia, ALL); experiment: as above; type: cell-based; details: for cell number in FTS-treated cells as a percentage of controls (avg): counted 48 h after addition
Description: as §1, §2

[7] = test system: U-937 cells (Human histiocytic lymphoma, AML); experiment: as above; type: cell-based; details: U937; for cell number in FTS-treated cells as a percentage of controls (avg): counted 48 h after addition
Description: as §1, §2

[8] = test system: seven leukemia cell lines (CEM, HSB-2, 697, Raji, U-937, HL-60, K562); experiment: Cell growth inhibition assay, FTS alone, summary over the seven cell lines; type: cell-based, Human
Description: as §1, §2

K562 cells (Human, CML) [9] = experiment: FACS analysis of propidium iodide stained cells (cell cycle distribution, sub-G1); type: cell-based; details: for cells in sub-G1: 48 h
Experimental: Third, a FACS analysis was performed. Cells were plated at a density of 50,000 cells per ml in 10 cm plates for fluorescence-activated cell-sorting (FACS) analysis of propidium iodide stained cells. […] Forty-eight hours (48 h) later, propidium iodide mixed with 1% Triton X-100 was added to the cells, and the cell cycle distribution of the cells was assessed using a FACS machine.
[Gambacorti-Passerini, C., le Coutre, P., Mologni, L., Fanelli, M., Bertazzoli, C., Marchesi, E., Di Nicola, M., Biondi, A., Corneo, G. M., Belotti, D., Pogliani, E., Lydon, N. B., Blood Cells Mol Dis. 23(3):380-94 (1997)].

[10] = person one, AML, FTS 400 mg b.i.d.
[11] = person two, AML, FTS 400 mg b.i.d.
[12] = person, MDS, FTS 200 b.i.d., days 1 to 21 of a 28 day cycle
[13] = Homo sapiens, read-out: IC50 for FTS inhibition of leukemia cell growth

## CC(C)=CCC/C(C)=C/CC/C(C)=C/CSc1ccccc1C(=O)O [FTS, farnesylthiosalicylic acid]
[1]; five patients, advanced MDS, AML or CML refractory to chemotherapy, 200 to 600 mg b.i.d., days 1 to 21 of a 28 day cycle
  lineage response (PLT, HGB or ANC) over the course of treatment: improvement in one lineage
[1]; one patient, advanced MDS refractory to chemotherapy, 200 b.i.d. (400 mg daily), days 1 to 21 of a 28 day cycle
  lineage response (PLT, HGB, ANC) over the course of treatment: improvement in three lineages
[1]; [10]
  ANC, best level observed: 4.503e+09 L⁻¹
  ANC, baseline level: 0.285 to × 10^9/L
[1]; [11]
  ANC, best level observed: 9.54e+08 L⁻¹
  ANC, baseline level: 0.144 to × 10^9/L
[1]; person, CML, FTS 600 mg b.i.d.
  HGB, best level observed: 11.4 g/dL
  HGB, baseline level: 9.3 to g/dL
[1]; person, MDS, FTS 200 mg b.i.d.
  PLT, best level observed: 5.4e+10 L⁻¹
  PLT, baseline level: 21 to × 10^9/L
[1]; person, MDS, FTS 400 mg b.i.d.
  HGB, best level observed: 10.4 g/dL
  HGB, baseline level: 9.7 to g/dL
[1]; [12]
  ANC, best level observed: 9.7e+08 L⁻¹
  HGB, best level observed: 12.7 g/dL
  PLT, best level observed: 1.05e+11 L⁻¹
  ANC, baseline level: 0.40 to × 10^9/L
  HGB, baseline level: 10.4 to g/dL
  PLT, baseline level: 53 to × 10^9/L
HL-60 cells (AML); FTS 6.25 uM
  cell number in FTS-treated cells as a percentage of controls (avg): 76%
HL-60 cells (AML); FTS 12.5 uM
  cell number in FTS-treated cells as a percentage of controls (avg): 69%
HL-60 cells (AML); FTS 25 uM
  cell number in FTS-treated cells as a percentage of controls (avg): 82%
HL-60 cells (AML); FTS 50 uM
  cell number in FTS-treated cells as a percentage of controls (avg): 67%
HL-60 cells (AML); FTS 75 uM
  cell number in FTS-treated cells as a percentage of controls (avg): 31%
HL-60 cells (AML); [13]
  IC50: 60 µM
[2]; FTS 6.25 uM
  cell number in FTS-treated cells as a percentage of controls (avg): 63%
[2]; FTS 12.5 uM
  cell number in FTS-treated cells as a percentage of controls (avg): 61%
[2]; FTS 25 uM
  cell number in FTS-treated cells as a percentage of controls (avg): 33%
[2]; FTS 50 uM
  cell number in FTS-treated cells as a percentage of controls (avg): 24%
[2]; FTS 75 uM
  cell number in FTS-treated cells as a percentage of controls (avg): 11%
[2]; FTS 100 uM
  cell number in FTS-treated cells as a percentage of controls (avg): 5%
[2]; [13]
  IC50: 20 µM
[3]; FTS 12.5 uM
  cell number in FTS-treated cells as a percentage of controls (avg): 88%
[3]; FTS 25 uM
  cell number in FTS-treated cells as a percentage of controls (avg): 53%
[3]; FTS 50 uM
  cell number in FTS-treated cells as a percentage of controls (avg): 38%
[3]; FTS 75 uM
  cell number in FTS-treated cells as a percentage of controls (avg): 22%
[3]; FTS 100 uM
  cell number in FTS-treated cells as a percentage of controls (avg): 4%
[3]; Homo sapiens, HSB2
  IC50: 25 µM
[4]; FTS 12.5 uM
  cell number in FTS-treated cells as a percentage of controls (avg): 89%
[4]; FTS 25 uM
  cell number in FTS-treated cells as a percentage of controls (avg): 78%
[4]; FTS 50 uM
  cell number in FTS-treated cells as a percentage of controls (avg): 71%
[4]; FTS 75 uM
  cell number in FTS-treated cells as a percentage of controls (avg): 32%
[4]; FTS 100 uM
  cell number in FTS-treated cells as a percentage of controls (avg): 12%
[4]; Homo sapiens, CCRF-CEM
  IC50: 50 µM
K562 cells (Human, CML) [5]; FTS 6.25 uM
  cell number in FTS-treated cells as a percentage of controls (avg): 100%
K562 cells (Human, CML) [5]; FTS 12.5 uM
  cell number in FTS-treated cells as a percentage of controls (avg): 115%
K562 cells (Human, CML) [5]; FTS 25 uM
  cell number in FTS-treated cells as a percentage of controls (avg): 107%
K562 cells (Human, CML) [5]; FTS 50 uM
  cell number in FTS-treated cells as a percentage of controls (avg): 37%
K562 cells (Human, CML) [5]; FTS 75 uM
  cell number in FTS-treated cells as a percentage of controls (avg): 14%
K562 cells (Human, CML) [5]; FTS 100 uM
  cell number in FTS-treated cells as a percentage of controls (avg): 1%
K562 cells (Human, CML) [5]; [13]
  IC50: 50 µM
[6]; FTS 12.5 uM
  cell number in FTS-treated cells as a percentage of controls (avg): 27%
[6]; FTS 25 uM
  cell number in FTS-treated cells as a percentage of controls (avg): 44%
[6]; FTS 50 uM
  cell number in FTS-treated cells as a percentage of controls (avg): 34%
[6]; FTS 75 uM
  cell number in FTS-treated cells as a percentage of controls (avg): 4%
[6]; FTS 100 uM
  cell number in FTS-treated cells as a percentage of controls (avg): 2%
[6]; Homo sapiens, T-cell
  IC50: 25 µM
[7]; Homo sapiens, U-937, read-out: IC50 for FTS inhibition of leukemia cell growth
  IC50: 70 µM
[7]; FTS 12.5 uM
  cell number in FTS-treated cells as a percentage of controls (avg): 104%
[7]; FTS 25 uM
  cell number in FTS-treated cells as a percentage of controls (avg): 82%
[7]; FTS 50 uM
  cell number in FTS-treated cells as a percentage of controls (avg): 82%
[7]; FTS 75 uM
  cell number in FTS-treated cells as a percentage of controls (avg): 32%
[7]; FTS 100 uM
  cell number in FTS-treated cells as a percentage of controls (avg): 9%
[8]; Homo sapiens, seven leukemia cell lines, read-out: half maximal inhibitory concentration (IC50) values, range over the cell lines
  IC50: 20 to 70 µM
[8]; seven cell lines
  growth inhibition, result in words: inhibited growth of each of seven cell lines
K562 cells (Human, CML) [9]; FTS 70 μM with GLEEVEC 200 nM
  sensitization of K562 cells to GLEEVEC: chemosensitized the K562 cells to GLEEVEC
K562 cells (Human, CML) [9]; FTS only, 70 μM
  cells in sub-G1: 8%

## Cc1ccc(NC(=O)c2ccc(CN3CCN(C)CC3)cc2)cc1Nc1nccc(-c2cccnc2)n1 [GLEEVEC, reference compound]
K562 cells (Human, CML) [9]; GLEEVEC only, 200 nM
  cells in sub-G1: 13%
